Assay results from patent US11613552B2, “Pharmaceutical agents, compositions, and methods relating thereto” (Alltech, Inc., priority 2017, dated 2023).

Legend:
HepG2 cells = test: Cell viability (CellTiter96 AQueous One) in HepG2 cells; assay type: cell-based, human; conditions: all tested doses, 48 hr
Procedure: After the above treatments, 50 μl of culture media were collected, and subjected to glucose analysis using Molecular Probes Amplex Red glucose assay kit (Cat #A22189) according to the manufacturer's protocol. Cell numbers or viability in the culture plate after the above compound treatments were determined using Promega's CellTiter96® AQueous One Solution Cell Proliferation Assay kits, according to the manufacturer's protocol and instructions. In brief, after removing 50 μl of culture media for glucose assay, cells were incubated with AQueous One solution (25 μl stock solution and 50 μl prewarmed PBS/per well) at 37° C. for 1 hour, and the absorbance of OD490 nm in each sample was determined by the Bio-Tek microplate reader. Cell viability in culture wells were determined by the subtraction of OD490 nm in cultured cells with the OD490 nm in plain culture media (without seeding of cells). Glucose production in the culture cells were obtained by normalizing the glucose concentration in culture media by cell viability in each well. At least 3 samples per each treatment were examined for the above analysis. Data are presented as Mean±SEM of those samples. Experiments were repeated at least twice.

Insrβ = target: T1, Insrβ (Mus musculus, UniProt P15208); test: ELISA of phospho-Insrβ in livers of Lepr^db/db mice; assay type: in vivo; conditions: 0.136 mg/kg ip daily
T1 construct: gastrocnemius skeletal muscle and liver samples were collected and stored at −80° C; from tissue; host or cells: gastrocnemius skeletal muscle (A22) and liver (A24) of Lepr db/db mice
Procedure: Male Lepr^db/db mice (C57BL/6J strain, purchased from The Jackson Laboratory) at postnatal day 38 were intraperitoneally injected daily with physiological saline ([…]) containing 0.2% DMSO, or 0.136 mg of Compound #43 per kilogram body weight, diluted in the sterile physiological saline) for 52 days. After the treatment, gastrocnemius skeletal muscle and liver samples were collected and stored at −80° C.
Frozen skeletal muscle and liver tissues were minced in sterile ice-old PBS containing complete proteinase and phosphatase inhibitors (Thermo-Fisher Scientific, Waltham, Mass.) and subjected to homogenization using a tissue homogenizer (Thermo-Fisher Scientific, Waltham, Mass.). These tissue homogenates were diluted in Themo-Fisher's premade RIPA buffer (1 part homogenate/2 part of RIPA buffer) containing complete proteinase/phosphatase inhibitors to extract the proteins. Proteins in the homogenates were extracted in RIPA buffer at 4° C. overnight. These overnight-extracted protein/tissue lysates were centrifuged at 12000×g for 30 min at 4° C., and the protein levels in the supernatant of these tissue lysates were determined using the Pierce Micro-BCA protein assay kit (Thermo Scientific-Piece Biotechnology, Rockford, Ill.) according to the manufacturer's protocol. […]

[1] = Serum insulin, ALT and creatinine assays in Lepr^db/db mice; assay type: in vivo, mouse; conditions: 0.136 mg/kg ip daily
Procedure: Male Lepr^db/db mice at 38 days of age were intraperitoneally (ip) injected daily with physiological saline ([…]) containing 0.2% DMSO, and Compound #43 (0.136 mg per kilogram body weight, diluted in sterile physiological saline) for 52 days. Sera from 3-month-old wild-type (non-diabetic) C57 mice were also collected. After the treatments, these serum samples were collected and subjected to insulin, ALT and creatinine assays.
The serum levels of insulin, ALT and creatinine were determined using Themo-Fisher Scientific's Insulin Mouse ELISA kit (Cat #EMINS), Sigma's ALT Activity Assay kit (Cat #MAK052), and Abcam's Creatinine Assay kit (Cat #Ab65340) according to the manufacturer's protocol, respectively.

T1 sequence (P15208 753-1372 limits assumed): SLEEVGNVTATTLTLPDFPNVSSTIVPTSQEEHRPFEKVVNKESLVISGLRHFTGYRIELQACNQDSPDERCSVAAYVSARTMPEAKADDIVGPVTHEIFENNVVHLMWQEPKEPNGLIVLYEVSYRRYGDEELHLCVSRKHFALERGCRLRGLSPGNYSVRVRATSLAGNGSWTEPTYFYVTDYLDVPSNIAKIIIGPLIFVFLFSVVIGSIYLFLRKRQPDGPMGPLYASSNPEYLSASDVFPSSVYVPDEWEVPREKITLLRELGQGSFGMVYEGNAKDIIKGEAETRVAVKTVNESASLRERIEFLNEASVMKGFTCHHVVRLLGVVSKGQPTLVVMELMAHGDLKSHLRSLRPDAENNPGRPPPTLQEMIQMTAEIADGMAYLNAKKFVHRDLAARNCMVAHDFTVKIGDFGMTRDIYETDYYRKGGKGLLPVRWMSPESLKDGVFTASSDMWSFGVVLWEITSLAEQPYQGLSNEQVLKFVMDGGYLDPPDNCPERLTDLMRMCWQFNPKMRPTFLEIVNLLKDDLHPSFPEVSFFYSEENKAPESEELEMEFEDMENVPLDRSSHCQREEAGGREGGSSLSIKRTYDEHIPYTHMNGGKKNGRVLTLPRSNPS
T1 sequence (P15208 28-748 partner limits assumed): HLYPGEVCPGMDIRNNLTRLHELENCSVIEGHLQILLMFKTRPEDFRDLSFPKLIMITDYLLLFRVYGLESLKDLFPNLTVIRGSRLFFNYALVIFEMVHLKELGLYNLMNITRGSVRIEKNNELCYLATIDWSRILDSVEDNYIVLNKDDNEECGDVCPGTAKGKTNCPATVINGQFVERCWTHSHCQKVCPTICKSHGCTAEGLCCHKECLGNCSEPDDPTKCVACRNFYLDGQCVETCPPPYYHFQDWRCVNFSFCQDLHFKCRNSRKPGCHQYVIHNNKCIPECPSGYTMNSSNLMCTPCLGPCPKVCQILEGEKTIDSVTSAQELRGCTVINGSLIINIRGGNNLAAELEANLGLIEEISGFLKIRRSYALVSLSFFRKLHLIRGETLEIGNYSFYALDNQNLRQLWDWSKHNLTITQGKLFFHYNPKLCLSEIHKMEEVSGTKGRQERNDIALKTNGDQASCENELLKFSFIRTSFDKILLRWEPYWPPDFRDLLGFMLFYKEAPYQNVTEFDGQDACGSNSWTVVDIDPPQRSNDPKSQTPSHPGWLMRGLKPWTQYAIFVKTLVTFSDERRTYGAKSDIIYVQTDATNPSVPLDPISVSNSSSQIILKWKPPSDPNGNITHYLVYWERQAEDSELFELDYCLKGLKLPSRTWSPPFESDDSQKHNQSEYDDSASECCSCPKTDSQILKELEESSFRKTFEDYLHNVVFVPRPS

For `C[Se]C[C@H]1O[C@@H](n2cnc3c(N)ncnc32)C(OC(C)=O)C1OC(C)=O` (stereo partly drawn) [Compound #43, Adenosine, 5′-Se-methyl-5′-selino-, 2′,3′-diacetate], the cell viability (HepG2 cells) was “no significant decrease of cell viability”, the “increase of phosphorylated Insrβ at Tyrosine 1146 in liver” value (Insrβ; 52 days (FIG. 22A)) was roughly 2.9 fold and the “increase of phosphorylated Insrβ at Tyrosine 1150/1151 in liver” value (Insrβ; 52 days (FIG. 22B)) was roughly 2.95 fold. For the same compound, the “decrease of serum insulin levels” value ([1]; 52 days (FIG. 24A)) was “about 80%”, the “serum ALT levels” value ([1]; 52 days (FIG. 24B)) was “significant decrease of serum ALT levels” and the serum creatinine levels ([1]; 52 days (FIG. 24C)) was “no significant change in serum creatinine levels”.
